# Measured values as given in PubChem BioAssay (NCI).
#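 Tested at 5 concentrations; 48 h exposure; 96-well plates; endpoints linearly interpolated, else capped at highest concentration. The concentration for 50% growth inhibition is given as GI50. TGI is the concentration that stops growth completely.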
# Tests used:
# Experiment in all cases: NCI anticancer screen, dose series, 48 h
# [1] = test system: HOP-92 NSCLC
# [2] = test system: COLO 205 colon
# [3] = test system: OVCAR-5 ovarian
# [4] = test system: OVCAR-3 ovarian
# [5] = test system: SW-620 colon
# [6] = test system: SNB-75 CNS
# [7] = test system: SF-539 CNS
# [8] = test system: 786-0 renal
# [9] = test system: NCI-H522 lung
# [10] = test system: MALME-3M melanoma
# [11] = test system: SK-MEL-2 melanoma
# [12] = test system: CAKI-1 renal
# [13] = test system: NCI/ADR-RES ovarian
# [14] = test system: UACC-257 melanoma
# [15] = test system: SK-MEL-28 melanoma
# [16] = test system: ACHN renal
# [17] = test system: KM12 colon
# [18] = test system: EKVX NSCLC
# [19] = test system: SNB-19 CNS
# [20] = test system: A498 renal
# [21] = test system: OVCAR-4 ovarian
# [22] = test system: T-47D breast
# [23] = test system: MDA-MB-231 breast
# [24] = test system: TK-10 renal
# [25] = test system: HCT-15 colon
# [26] = test system: HT29 colon
# [27] = test system: SF-268 CNS
# [28] = test system: RPMI-8226 leukemia
# [29] = test system: PC-3 prostate
# [30] = test system: A549 NSCLC
# [31] = test system: HCC-2998 colon
# [32] = test system: UACC-62 melanoma
# [33] = test system: SK-OV-3 ovarian
# [34] = test system: MCF7 breast
# [35] = test system: IGROV1 ovarian
# [36] = test system: K-562 leukemia
# [37] = test system: CCRF-CEM leukemia
# [38] = test system: HOP-62 NSCLC
# [39] = test system: NCI-H226 lung
# [40] = test system: DU-145 prostate
# [41] = test system: HL-60(TB) leukemia
# [42] = test system: SR leukemia
# [43] = test system: MOLT-4 leukemia
# [44] = test system: OVCAR-8 ovarian
# [45] = test system: SN12C renal
# [46] = test system: NCI-H23 lung
# [47] = test system: HS 578T breast
# [48] = test system: HCT-116 colon
# [49] = test system: UO-31 renal
# [50] = test system: NCI-H460 lung
# [51] = test system: U251 CNS
# [52] = test system: SF-295 CNS
# [53] = test system: M14 melanoma
# [54] = test system: MDA-MB-435
# [55] = test system: BT-549 breast
# [56] = test system: LOX IMVI melanoma
# [57] = test system: SK-MEL-5 melanoma
smiles,measurement,setting,value
Cc1nc2c(n1C)C(=O)c1ccccc1C2=O,GI50,[1],> 100 µM
same,TGI,[1],> 100 µM
same,GI50,[2],37.4 µM
same,TGI,[2],> 100 µM
same,GI50,[3],> 100 µM
same,TGI,[3],> 100 µM
same,GI50,[4],25.2 µM
same,TGI,[4],68.6 µM
same,GI50,[5],52 µM
same,TGI,[5],> 100 µM
same,GI50,[6],> 100 µM
same,TGI,[6],> 100 µM
same,GI50,[7],85.5 µM
same,TGI,[7],> 100 µM
same,GI50,[8],> 100 µM
same,TGI,[8],> 100 µM
same,GI50,[9],40.6 µM
same,TGI,[9],> 100 µM
same,GI50,[10],4.74 µM
same,TGI,[10],28.5 µM
same,GI50,[11],> 100 µM
same,TGI,[11],> 100 µM
same,GI50,[12],29.4 µM
same,TGI,[12],> 100 µM
same,GI50,[13],81.7 µM
same,TGI,[13],> 100 µM
same,GI50,[14],29.4 µM
same,TGI,[14],> 100 µM
same,GI50,[15],> 100 µM
same,TGI,[15],> 100 µM
same,GI50,[16],> 100 µM
same,TGI,[16],> 100 µM
same,GI50,[17],59.7 µM
same,TGI,[17],> 100 µM
same,GI50,[18],60.4 µM
same,TGI,[18],> 100 µM
same,GI50,[19],91.3 µM
same,TGI,[19],> 100 µM
same,GI50,[20],> 100 µM
same,TGI,[20],> 100 µM
same,GI50,[21],43.5 µM
same,TGI,[21],> 100 µM
same,GI50,[22],87.4 µM
same,TGI,[22],> 100 µM
same,GI50,[23],> 100 µM
same,TGI,[23],> 100 µM
same,GI50,[24],> 100 µM
same,TGI,[24],> 100 µM
same,GI50,[25],53.6 µM
same,TGI,[25],> 100 µM
same,GI50,[26],37.2 µM
same,TGI,[26],> 100 µM
same,GI50,[27],> 100 µM
same,TGI,[27],> 100 µM
same,GI50,[28],> 100 µM
same,TGI,[28],> 100 µM
same,GI50,[29],63.9 µM
same,TGI,[29],> 100 µM
same,GI50,[30],21.5 µM
same,TGI,[30],> 100 µM
same,GI50,[31],67.6 µM
same,TGI,[31],> 100 µM
same,GI50,[32],56 µM
same,TGI,[32],> 100 µM
same,GI50,[33],> 100 µM
same,TGI,[33],> 100 µM
same,GI50,[34],46.1 µM
same,TGI,[34],> 100 µM
same,GI50,[35],31.3 µM
same,TGI,[35],> 100 µM
same,GI50,[36],59.3 µM
same,TGI,[36],> 100 µM
same,GI50,[37],59.3 µM
same,TGI,[37],> 100 µM
same,GI50,[38],> 100 µM
same,TGI,[38],> 100 µM
same,GI50,[39],> 100 µM
same,TGI,[39],> 100 µM
same,GI50,[40],51.3 µM
same,TGI,[40],> 100 µM
same,GI50,[41],46.8 µM
same,TGI,[41],> 100 µM
same,GI50,[42],48.9 µM
same,TGI,[42],> 100 µM
same,GI50,[43],85 µM
same,TGI,[43],> 100 µM
same,GI50,[44],> 100 µM
same,TGI,[44],> 100 µM
same,GI50,[45],49.4 µM
same,TGI,[45],> 100 µM
same,GI50,[46],50.4 µM
same,TGI,[46],> 100 µM
same,GI50,[47],> 100 µM
same,TGI,[47],> 100 µM
same,GI50,[48],40 µM
same,TGI,[48],> 100 µM
same,GI50,[49],77.6 µM
same,TGI,[49],> 100 µM
same,GI50,[50],18 µM
same,TGI,[50],> 100 µM
same,GI50,[51],63.9 µM
same,TGI,[51],> 100 µM
same,GI50,[52],10.8 µM
same,TGI,[52],72.3 µM
same,GI50,[53],43 µM
same,TGI,[53],> 100 µM
same,GI50,[54],48.1 µM
same,TGI,[54],> 100 µM
same,GI50,[55],> 100 µM
same,TGI,[55],> 100 µM
same,GI50,[56],38.5 µM
same,TGI,[56],> 100 µM
same,GI50,[57],22 µM
same,TGI,[57],85.2 µM
